PubChem BioAssay AID1963853 (Molecular Pharmacology Branch, DTP, NCI, 2024)

Tested on: 266295-075-R-J1-PDC spheroid viability
Experiment: Anticancer human tumor 266295-075-R-J1-PDC patient-derived head and neck squamous carcinoma cell line growth inhibition [POLQ]
Details: spheroids with HUVEC and MSC; for IC50: curve of first compound; for viability, T/C: stronger effect = lower value
Outline: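 Complex spheroid viability model combining PDC tumour cells with endothelial (HUVEC) and MSC stromal cells. Novobiocin, ART-558 or RP6685 were tested singly and in combination with standard and investigational anticancer drugs. Each was titrated in half-log steps from near clinical Cmax, or from 10 microM where Cmax was unknown.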

[1] = second compound 0.0316 µM, first compound 0.0316 µM
[2] = second compound 0.0316 µM, first compound 0.1 µM
[3] = second compound 0.0316 µM, first compound 0.316 µM
[4] = second compound 0.0316 µM, first compound 1 µM
[5] = second compound 0.0316 µM, first compound 3.16 µM
[6] = second compound 0.0316 µM, first compound 10 µM
[7] = second compound 0.1 µM, first compound 0.0316 µM
[8] = second compound 0.1 µM, first compound 0.1 µM
[9] = second compound 0.1 µM, first compound 0.316 µM
[10] = second compound 0.1 µM, first compound 1 µM
[11] = second compound 0.1 µM, first compound 3.16 µM
[12] = second compound 0.1 µM, first compound 10 µM
[13] = second compound 0.316 µM, first compound 0.0316 µM
[14] = second compound 0.316 µM, first compound 0.1 µM
[15] = second compound 0.316 µM, first compound 0.316 µM
[16] = second compound 0.316 µM, first compound 1 µM
[17] = second compound 0.316 µM, first compound 3.16 µM
[18] = second compound 0.316 µM, first compound 10 µM
[19] = second compound 1 µM, first compound 0.0316 µM
[20] = second compound 1 µM, first compound 0.1 µM
[21] = second compound 1 µM, first compound 0.316 µM
[22] = second compound 1 µM, first compound 1 µM
[23] = second compound 1 µM, first compound 3.16 µM
[24] = second compound 1 µM, first compound 10 µM
[25] = second compound 3.16 µM, first compound 0.0316 µM
[26] = second compound 3.16 µM, first compound 0.1 µM
[27] = second compound 3.16 µM, first compound 0.316 µM
[28] = second compound 3.16 µM, first compound 1 µM
[29] = second compound 3.16 µM, first compound 3.16 µM
[30] = second compound 3.16 µM, first compound 10 µM
[31] = second compound 10 µM, first compound 0.0316 µM
[32] = second compound 10 µM, first compound 0.1 µM
[33] = second compound 10 µM, first compound 0.316 µM
[34] = second compound 10 µM, first compound 1 µM
[35] = second compound 10 µM, first compound 3.16 µM
[36] = second compound 10 µM, first compound 10 µM
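Note: spheroids exposed to compounds for seven days before readout.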

O=C(c1cc(Cc2n[nH]c(=O)c3ccccc23)ccc1F)N1CCN(C(=O)C2CC2)CC1 + Cc1cccc(N(C)C(=O)C2C(O)CCN2c2nc(C)cc(C(F)(F)F)c2C#N)c1
IC50 (second compound 0.0316 µM): > 10 µM | IC50 (second compound 0.1 µM): > 10 µM | IC50 (second compound 0.316 µM): > 10 µM | IC50 (second compound 1 µM): > 10 µM | IC50 (second compound 3.16 µM): > 10 µM | IC50 (second compound 10 µM): > 10 µM | viability, T/C [1]: 91% | viability, T/C [2]: 104% | viability, T/C [3]: 80.3% | viability, T/C [4]: 85.6% | viability, T/C [5]: 93.2% | viability, T/C [6]: 104% | viability, T/C [7]: 95.5% | viability, T/C [8]: 103% | viability, T/C [9]: 91.4% | viability, T/C [10]: 89.6% | viability, T/C [11]: 99.3% | viability, T/C [12]: 78% | viability, T/C [13]: 86.6% | viability, T/C [14]: 86.5% | viability, T/C [15]: 91.7% | viability, T/C [16]: 91.4% | viability, T/C [17]: 107% | viability, T/C [18]: 75.3% | viability, T/C [19]: 121% | viability, T/C [20]: 110% | viability, T/C [21]: 89.5% | viability, T/C [22]: 92.1% | viability, T/C [23]: 82.5% | viability, T/C [24]: 85.9% | viability, T/C [25]: 92.8% | viability, T/C [26]: 97.1% | viability, T/C [27]: 93.5% | viability, T/C [28]: 110% | viability, T/C [29]: 121% | viability, T/C [30]: 89% | viability, T/C [31]: 101% | viability, T/C [32]: 99% | viability, T/C [33]: 95.1% | viability, T/C [34]: 107% | viability, T/C [35]: 115% | viability, T/C [36]: 94.6%

Cn1ncnc1[C@H]1c2n[nH]c(=O)c3cc(F)cc(c23)N[C@@H]1c1ccc(F)cc1 + Cc1cccc(N(C)C(=O)C2C(O)CCN2c2nc(C)cc(C(F)(F)F)c2C#N)c1
IC50 (second compound 0.0316 µM): > 0.1 µM | IC50 (second compound 0.1 µM): > 0.1 µM | IC50 (second compound 0.316 µM): > 0.1 µM | IC50 (second compound 1 µM): > 0.1 µM | IC50 (second compound 3.16 µM): > 0.1 µM | IC50 (second compound 10 µM): > 0.1 µM | viability, T/C (second compound 0.0316 µM, first compound 0.000316 µM): 88.2% | viability, T/C (second compound 0.0316 µM, first compound 0.001 µM): 93.7% | viability, T/C (second compound 0.0316 µM, first compound 0.00316 µM): 84.3% | viability, T/C (second compound 0.0316 µM, first compound 0.01 µM): 109% | viability, T/C [1]: 100% | viability, T/C [2]: 96.5% | viability, T/C (second compound 0.1 µM, first compound 0.000316 µM): 99.4% | viability, T/C (second compound 0.1 µM, first compound 0.001 µM): 104% | viability, T/C (second compound 0.1 µM, first compound 0.00316 µM): 85.4% | viability, T/C (second compound 0.1 µM, first compound 0.01 µM): 115% | viability, T/C [7]: 90% | viability, T/C [8]: 87.9% | viability, T/C (second compound 0.316 µM, first compound 0.000316 µM): 108% | viability, T/C (second compound 0.316 µM, first compound 0.001 µM): 99.2% | viability, T/C (second compound 0.316 µM, first compound 0.00316 µM): 99.1% | viability, T/C (second compound 0.316 µM, first compound 0.01 µM): 104% | viability, T/C [13]: 95.7% | viability, T/C [14]: 99.7% | viability, T/C (second compound 1 µM, first compound 0.000316 µM): 103% | viability, T/C (second compound 1 µM, first compound 0.001 µM): 122% | viability, T/C (second compound 1 µM, first compound 0.00316 µM): 89% | viability, T/C (second compound 1 µM, first compound 0.01 µM): 97.1% | viability, T/C [19]: 113% | viability, T/C [20]: 75.8% | viability, T/C (second compound 3.16 µM, first compound 0.000316 µM): 94.1% | viability, T/C (second compound 3.16 µM, first compound 0.001 µM): 96.7% | viability, T/C (second compound 3.16 µM, first compound 0.00316 µM): 85.2% | viability, T/C (second compound 3.16 µM, first compound 0.01 µM): 118% | viability, T/C [25]: 104% | viability, T/C [26]: 104% | viability, T/C (second compound 10 µM, first compound 0.000316 µM): 119% | viability, T/C (second compound 10 µM, first compound 0.001 µM): 104% | viability, T/C (second compound 10 µM, first compound 0.00316 µM): 101% | viability, T/C (second compound 10 µM, first compound 0.01 µM): 105% | viability, T/C [31]: 109% | viability, T/C [32]: 114%

CC(C)n1c(=O)n(C)c2cnc3cc(F)c(-c4ccc(OCCCN5CCCCC5)nc4)cc3c21 + Nc1ccc(C#CCN(C(=O)Cc2ncc(C(F)(F)F)cc2C(F)(F)F)c2ccc(F)cc2)nn1
IC50 (second compound 0.0316 µM): > 10 µM | IC50 (second compound 0.1 µM): > 10 µM | IC50 (second compound 0.316 µM): > 10 µM | IC50 (second compound 1 µM): > 10 µM | IC50 (second compound 3.16 µM): > 10 µM | IC50 (second compound 10 µM): > 10 µM | viability, T/C [1]: 105% | viability, T/C [2]: 99.3% | viability, T/C [3]: 104% | viability, T/C [4]: 106% | viability, T/C [5]: 82.8% | viability, T/C [6]: 76.3% | viability, T/C [7]: 93.8% | viability, T/C [8]: 103% | viability, T/C [9]: 88% | viability, T/C [10]: 80.6% | viability, T/C [11]: 96% | viability, T/C [12]: 64.5% | viability, T/C [13]: 110% | viability, T/C [14]: 105% | viability, T/C [15]: 90.2% | viability, T/C [16]: 91.3% | viability, T/C [17]: 89.9% | viability, T/C [18]: 66.7% | viability, T/C [19]: 93.5% | viability, T/C [20]: 114% | viability, T/C [21]: 99.4% | viability, T/C [22]: 90% | viability, T/C [23]: 82.2% | viability, T/C [24]: 65.3% | viability, T/C [25]: 121% | viability, T/C [26]: 118% | viability, T/C [27]: 103% | viability, T/C [28]: 96.3% | viability, T/C [29]: 92.4% | viability, T/C [30]: 87.9% | viability, T/C [31]: 96.5% | viability, T/C [32]: 87.9% | viability, T/C [33]: 118% | viability, T/C [34]: 93.3% | viability, T/C [35]: 66.4% | viability, T/C [36]: 71.8%
